Test results from patent US10173991B2, “Sulfone amide linked benzothiazole inhibitors of endothelial lipase” (BRISTOL-MYERS SQUIBB COMPANY, priority 2014, dated 2019).

Molecular target: Endothelial lipase (EL) (Homo sapiens (Human), UniProt Q9Y5X9)
Experiment: Endothelial lipase (EL) enzymatic assay with fluorescent substrate A10070 in DMPG vesicles
Assay type: biochemical
In short: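 Vesicles prepared: A10070 dried with DMPG, resuspended in HEPES pH 8.0/NaCl/EDTA, sonicated on ice. Enzyme incubated with compound 30 min at 37° C. Reaction started with 1:10 diluted vesicles. Fluorescence (490/530 nm) followed 60 min; slope from 300–900 secs gives rate.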

Chain of Endothelial lipase (EL) (Q9Y5X9 21-500): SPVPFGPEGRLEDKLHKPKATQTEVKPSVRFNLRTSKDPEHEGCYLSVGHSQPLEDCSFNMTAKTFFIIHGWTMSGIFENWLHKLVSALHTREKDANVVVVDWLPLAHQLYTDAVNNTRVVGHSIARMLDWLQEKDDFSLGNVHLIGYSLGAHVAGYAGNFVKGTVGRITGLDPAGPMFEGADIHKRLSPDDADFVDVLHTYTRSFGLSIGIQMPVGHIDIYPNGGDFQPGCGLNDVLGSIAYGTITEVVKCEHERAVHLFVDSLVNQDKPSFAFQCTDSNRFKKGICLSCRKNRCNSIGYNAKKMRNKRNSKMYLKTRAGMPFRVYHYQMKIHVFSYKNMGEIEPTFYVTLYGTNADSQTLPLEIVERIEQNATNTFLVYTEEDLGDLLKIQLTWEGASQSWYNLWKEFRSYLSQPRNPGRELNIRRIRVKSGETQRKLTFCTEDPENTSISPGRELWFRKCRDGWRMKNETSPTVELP

Row | Compound | IC50
1 | O=C(CNC(=O)C(c1nc2cc(F)c(-c3cncnc3)cc2s1)S(=O)(=O)c1cccc(-c2cncnc2)c1)NC1CC1 (centres unmarked) [Example 446, N-[(cyclopropyl-carbamoyl)methyl]-2-[5-fluoro-6-(pyrimidin-5-yl)-1,3-benzothiazol-2-yl]-2-[3-(pyrimidin-5-yl)benzenesulfonyl] acetamide] | 78 nM
2 | O=C(CNC(=O)C(c1nc2ccc(-c3ccc(C(=O)N4CCOCC4)cc3)cc2s1)S(=O)(=O)c1ccc(F)cc1)NC1CC1 (centres unmarked) [Example 448, N-[(cyclopropyl-carbamoyl)methyl]-2-(4-fluorobenzene-sulfonyl)-2-{6-[4-(morpholine-4-carbonyl)phenyl]-1,3-benzothiazol-2-yl}acetamide] | 10 nM
3 | O=C(CNC(=O)C(c1nc2ccc(-c3ccccc3)cc2s1)S(=O)(=O)c1ccc(F)cc1)NC1CC1 (centres unmarked) [Example 449, N-[(cyclopropyl-carbamoyl)methyl]-2-(4-fluorobenzene-sulfonyl)-2-(6-phenyl-1,3-benzothiazol-2-yl)acetamide] | 16 nM
4 | COCCNC(=O)c1ccc(-c2ccc3nc(C(C(=O)NCC(=O)NC4CC4)S(=O)(=O)c4ccc(F)cc4)sc3c2)cc1 (centres unmarked) [Example 450, 4-[2-({[(cyclopropyl-carbamoyl)methyl]carbamoyl}(4-fluorobenzene-sulfonyl)methyl)-1,3-benzothiazol-6-yl]-N-(2-methoxyethyl) benzamide] | 19 nM
5 | Cc1ncc(-c2ccc3nc(C(C(=O)NCC(=O)NC4CC4)S(=O)(=O)c4ccc(F)cc4)sc3c2)cn1 (centres unmarked) [Example 452, N-[(cyclopropyl-carbamoyl)methyl]-2-(4-fluorobenzene-sulfonyl)-2-[6-(2-methylpyrimidin-5-yl)-1,3-benzothiazol-2-yl]acetamide] | 39 nM
6 | CC(C)OCCNC(=O)CNC(=O)C(c1nc2ccc(-c3ccc(F)nc3)cc2s1)S(=O)(=O)c1ccc(F)cc1 (centres unmarked) [Example 455, 2-(4-fluorobenzene-sulfonyl)-2-[6-(6-fluoropyridin-3-yl)-1,3-benzothiazol-2-yl]-N-({[2-(propan-2-yloxy)ethyl]carbamoyl}methyl)acetamide] | 100 nM
7 | COc1ccc(-c2ccc3nc(C(C(=O)NCC(=O)NC4CC4)S(=O)(=O)c4ccc(F)cc4)sc3c2)cn1 (centres unmarked) [Example 456, N-[(cyclopropyl-carbamoyl)methyl]-2-(4-fluorobenzene-sulfonyl)-2-[6-(6-methoxypyridin-3-yl)-1,3-benzothiazol-2-yl]acetamide] | 109 nM
8 | O=C(CNC(=O)C(c1nc2ccc(-c3ccc(F)nc3)cc2s1)S(=O)(=O)c1ccc(F)cc1)NC1CC1 (centres unmarked) [Example 457, N-[(cyclopropyl-carbamoyl)methyl]-2-(4-fluorobenzene-sulfonyl)-2-[6-(6-fluoropyridin-3-yl)-1,3-benzothiazol-2-yl]acetamide] | 24 nM
9 | Cn1nccc1-c1ccc2nc(C(C(=O)NCC(=O)NC3CC3)S(=O)(=O)c3ccc(F)cc3)sc2c1 (centres unmarked) [Example 459, N-[(cyclopropyl-carbamoyl)methyl]-2-(4-fluorobenzene-sulfonyl)-2-[6-(1-methyl-1H-pyrazol-5-yl)-1,3-benzothiazol-2-yl]acetamide] | 18 nM
10 | O=C(CNC(=O)C(c1nc2ccc(-c3cncnc3)cc2s1)S(=O)(=O)c1ccc(F)cc1)NC1CC1 (centres unmarked) [Example 460, N-[(cyclopropyl-carbamoyl)methyl]-2-(4-fluorobenzene-sulfonyl)-2-[6-(pyrimidin-5-yl)-1,3-benzothiazol-2-yl]acetamide] | 47 nM
11 | COCCNC(=O)CNC(=O)C(c1nc2ccc(-c3ccc(F)nc3)cc2s1)S(=O)(=O)c1ccc(F)cc1 (centres unmarked) [Example 461, 2-(4-fluorobenzene-sulfonyl)-2-[6-(6-fluoropyridin-3-yl)-1,3-benzothiazol-2-yl]-N-{[(2-methoxyethyl)carbamoyl]methyl} acetamide] | 150 nM
12 | COCCNC(=O)CNC(=O)C(c1nc2ccc(-c3ccc(C(=O)NCCOC)cc3)cc2s1)S(=O)(=O)c1ccc(F)cc1 (centres unmarked) [Example 462, 4-{2-[(4-fluorobenzene-sulfonyl)({[(2-methoxyethyl)carbamoyl]methyl}carbamoyl)methyl]-1,3-benzothiazol-6-yl}-N-(2-methoxyethyl) benzamide] | 4 nM
13 | CC(C)OCCNC(=O)CNC(=O)C(c1nc2cc(F)cc(-c3ccc(F)nc3)c2s1)S(=O)(=O)c1ccc(F)cc1 (centres unmarked) [Example 465, 2-[5-fluoro-7-(6-fluoropyridin-3-yl)-1,3-benzothiazol-2-yl]-2-(4-fluorobenzene-sulfonyl)-N-({[2-(propan-2-yloxy)ethyl]carbamoyl}methyl)acetamide] | 53 nM

Further compounds by falling IC50, results first:

Row | IC50 | Compound
14 | 73 nM | COc1cc(-c2ccc3nc(C(C(=O)NCC(=O)NC4CC4)S(=O)(=O)c4ccc(F)cc4)sc3c2)ccn1 (centres unmarked) [Example 454, N-[(cyclopropyl-carbamoyl)methyl]-2-(4-fluorobenzene-sulfonyl)-2-[6-(2-methoxypyridin-4-yl)-1,3-benzothiazol-2-yl]acetamide]
15 | 67 nM | O=C1Cc2ccc(-c3ccc4nc(C(C(=O)NCC(=O)NC5CC5)S(=O)(=O)c5ccc(F)cc5)sc4c3)cc2N1 (centres unmarked) [Example 453, N-[(cyclopropyl-carbamoyl)methyl]-2-(4-fluorobenzene-sulfonyl)-2-[6-(2-oxo-2,3-dihydro-1H-indol-6-yl)-1,3-benzothiazol-2-yl]acetamide]
16 | 45 nM | CC(C)OCCNC(=O)CNC(=O)C(c1nc2ccc(-c3ccn(C)c(=O)c3)cc2s1)S(=O)(=O)c1ccc(F)cc1 (centres unmarked) [Example 464, 2-(4-fluorobenzene-sulfonyl)-2-[6-(1-methyl-2-oxo-1,2-dihydropyridin-4-yl)-1,3-benzothiazol-2-yl]-N-({[2-(propan-2-yloxy)ethyl]carbamoyl}methyl)acetamide]
17 | 39 nM | O=C(CNC(=O)C(c1nc2ccc(-c3ccc4c(c3)C(=O)NC4)cc2s1)S(=O)(=O)c1ccc(F)cc1)NC1CC1 (centres unmarked) [Example 451, N-[(cyclopropyl-carbamoyl)methyl]-2-(4-fluorobenzene-sulfonyl)-2-[6-(3-oxo-2,3-dihydro-1H-isoindol-5-yl)-1,3-benzothiazol-2-yl}acetamide]
18 | 32 nM | Cn1ccc(-c2ccc3nc(C(C(=O)NCC(=O)NC4CC4)S(=O)(=O)c4ccc(F)cc4)sc3c2)cc1=O (centres unmarked) [Example 458, N-[(cyclopropyl-carbamoyl)methyl]-2-(4-fluorobenzene-sulfonyl)-2-[6-(1-methyl-2-oxo-1,2-dihydropyridin-4-yl)-1,3-benzothiazol-2-yl]acetamide]
19 | 24 nM | COCCNC(=O)CNC(=O)C(c1nc2ccc(-c3ccn(C)c(=O)c3)cc2s1)S(=O)(=O)c1ccc(F)cc1 (centres unmarked) [Example 463, 2-(4-fluorobenze-nesulfonyl)-N-{[(2-methoxyethyl)carbamoyl]methyl}-2-[6-(1-methyl-2-oxo-1,2-dihydropyridin-4-yl)-1,3-benzothiazol-2-yl]acetamide]
20 | 9 nM | O=C(CNC(=O)C(c1nc2ccc(-c3ccc4c(c3)CNC4=O)cc2s1)S(=O)(=O)c1ccc(F)cc1)NC1CC1 (centres unmarked) [Example 447, N-[(cyclopropyl-carbamoyl)methyl]-2-(4-fluorobenzene-sulfonyl)-2-[6-(1-oxo-2,3-dihydro-1H-isoindol-5-yl)-1,3-benzothiazol-2-yl}acetamide]
